In data set [1] the test system is HIV-1. Conditions: AIDS patients; cited from earlier work.
Data set [2] deals with HIV-1. Conditions: alone; cited from earlier work.
In data set [3] the test system is human PBMCs. The data set can be described thus: β chemokine (MIP-1α, MIP-1β, RANTES) secretion from human PBMCs, dose and time course, capture ELISA. The data set is classed as cell-based. On the technique in general: An ELISA detects its analyte on a solid surface through an enzyme-linked reagent.
For data set [4], the system named is mice. Conditions: cited from earlier work.
Data set [5] concerns human PBMCs. As to the kind of experiment: human PBMC activation assay: proinflammatory cytokines (TNFα, IL-1β, IL-6) in supernatants by capture ELISA. The class given is cell-based. Conditions: 1 μg/ml; 8 hr.
Method: 50 ml of whole blood is mixed with an equal volume of RPMI (Life Technologies) and PBMCs are isolated by density gradient using lymphocyte separation medium according to the manufacturer's directions (Organon). The PBMCs are washed twice with RPMI then resuspended in 6 ml of ice cold sterile water and placed on ice for 30 sec to lyse the erythrocytes. The osmolarity is adjusted by adding 2 ml of ice cold 3.5% (w/v) NaCl; the PBMCs are harvested by centrifugation, washed with RPMI and resuspended in complete medium (CM; RPMI containing pyruvate, glutamine, PenStrep, and 10% endotoxin-free human AB serum (Life Technologies) at a density of 6×10^6 PBMCs/ml. CM containing the preparations to be assayed are placed into duplicate wells of a 96-well flat bottom culture late (Costar) at double the target final concentration. An equal volume of CM containing the PBMCs then is added to these wells and the culture plates are incubated at 37° C. in 5% CO2 for 8 hr. The supernatants are then removed and stored at 70° C. Quantitation of TNFα, IL-1β, IL-6, MIP-1α, MIP-1β and RANTES in these culture supernatants is achieved by capture ELISA (R&D Systems).
The next data set relates to HIV-1BAL. As to the kind of experiment: HIV-1BAL replication (p24 ELISA) in human PBMC-derived monocytes pretreated 24 hours. The data set is classed as cell-based. Conditions: 1000, 100 and 10 ng/ml for 24 hours; 19 days after infection; FIG. 5. The method, then:
To investigate the utility of the aforementioned findings, we investigated whether commercially available synthetic lipid IVA (ICN Inc.) suppressed the replication of HIV-1BAL in human PBMC-derived monocytes. Therefore, PBMCs were obtained as outlined in Section 6, see above, and placed into 12 well culture flat-bottom plate and incubated in CM (see example 1) for 12 days at 37° C. in 5% Co2. Non-adherent cells were removed and the cells were given fresh media every 2 days. After 6 days, the adherent PBMCs were treated with synthetic lipid IVA at 1000 ng/ml, 100 ng/ml and 10 ng/ml for 24 hours. The treated cells were subsequently infected with 0.200 ng of HIV-1BAL (Cocchi et al, supra) for 2 hours, washed twice and incubated for a further 19 days. Culture supernatants were then collected and the level of p24 in these supernatants was measured by ELISA (R&D Systems).
PBMC-derived monocytes were obtained as outlined in Section 8, see above. […] The treated cells were subsequently infected with 0.200 ng of HIV-1BAL (Cocchi et al., supra) for 2 hours, washed twice and incubated for a further 19 days. Culture supernatants were then collected and the level of p24 in these supernatants was measured by ELISA (R&D Systems).

Data set [6] deals with human PBMCs. The data set can be described thus: LPS antagonist test: TNFα from human PBMCs stimulated with W3110 LPS mixed with antagonist. The data set is classed as cell-based. Conditions: 1 μg/ml mixed with W3110 LPS 10 ng/ml; 8 hr. The method, then:
Quantitation of TNFα, IL-1β, IL-6, MIP-1α and MIP-1β in these culture supernatants was achieved by capture ELISA (R&D Systems).
W3110 LPS (also cultured at 37° C.) from 1 ng/ml to 100 ng/ml alone and W3110 LPS (10 ng/ml) mixed with synthetic lipid IVA (1 μg/ml) were used as controls.

For data set [7], the system named is mice. Conditions: cited from earlier work. The source holds these as a separate data set.

A value given as a limit tells only on which side of the number the result lay.

For `CC(C)c1nc(CN(C)C(=O)N[C@H](C(=O)N[C@@H](Cc2ccccc2)C[C@H](O)[C@H](Cc2ccccc2)NC(=O)OCc2cncs2)C(C)C)cs1` [ABT-538], in the data set with HIV-1 [1], the CD4 lymphocyte counts result is recorded as “CD4 lymphocyte counts to rise substantially” and the “plasma HIV-1 levels” value was “causes plasma HIV-1 levels to decrease exponentially”.
For `Cc1cn([C@H]2C[C@H](N=[N+]=[N-])[C@@H](CO)O2)c(=O)[nH]c1=O` [AZT, 3′-azido-2′,3′-dideoxythymidine], in the data set with HIV-1 [2], the “effect on viral load” value is reported as “about 1 log reduction”.
Take `CCCCCC/C=C/CCCCCC(=O)O[C@H](CCCCCCCCCCC)CC(=O)NC1C(OCC2OC(OP(=O)(O)O)C(NC(=O)CC(=O)CCCCCCCCCCC)C(OC(=O)C[C@H](O)CCCCCCC)C2O)OC(CO)C(OP(=O)(O)O)C1OC(=O)C[C@H](O)CCCCCCC` (stereo partly drawn) [RsDPLA, R. sphaeroides diphosphoryl lipid A]: the “level of RANTES after stimulation” value in the data set with human PBMCs [3] (FIG. 3) is on record as “not significantly elevated”. For the same compound, the “time of peak production of MIP-1α and MIP-1β after stimulation” value with human PBMCs [3] (supernatants at 8, 16, 24, 48 hr, FIG. 3) was found to be 24 h. For the same compound, in the data set with human PBMCs [3] (various doses, FIG. 2), the MIP-1α secretion entry was “stimulated the secretion of MIP-1α and MIP-1β in a dose-dependent manner”; the MIP-1β secretion result was “stimulated the secretion of MIP-1α and MIP-1β in a dose-dependent manner”.
Turning to “2,3-diacyl-glucosamine-1-phosphate [lipid X]”, the “pyrogenicity / toxicity in mice” value with mice [4] is recorded as “non-pyrogenic in mice”.
For the compound `CCCCCCCCCCC[C@@H](O)CC(=O)N[C@H]1[C@H](OC[C@H]2O[C@H](OP(=O)(O)O)[C@H](NC(=O)C[C@H](O)CCCCCCCCCCC)[C@@H](OC(=O)C[C@H](O)CCCCCCCCCCC)[C@@H]2O)O[C@H](CO)[C@@H](OP(=O)(O)O)[C@@H]1OC(=O)C[C@H](O)CCCCCCCCCCC` [Lipid IVA], in the data set on human PBMCs [5], the “IL-1β in human PBMC culture supernatants after stimulation with LPS” value stood at 13 ± 1 pg/mL and the “IL-6 in human PBMC culture supernatants after stimulation with LPS” value is 7581 ± 20 pg/mL. Further, the “pyrogenicity / toxicity in mice” value with mice [4] was “displays similar toxicity of that of lipid A in mice”. In addition, in the data set with HIV-1BAL, the “replication of HIV-1BAL (p24) in PBMC-derived monocytes” value was “suppresses the replication of HIV-1^BAL in a dose-dependent manner”. In the data set with human PBMCs [6], the TNFα was less than 30 pg/mL. Also, in the data set with human PBMCs [3], the “induction of β chemokines” value is on record as “without Inducing Measurable Levels of β Chemokines”.
In the case of R. sphaeroides lipid A [RSLA], the LPS induced lethality entry in the data set with mice [7] is recorded as “prevents LPS induced lethality in mice”.

The values are drawn from patent US6596477B1, “Treatment and prevention of immunodeficiency virus infection by administration of non-pyrogenic derivatives of lipid A” (University of Maryland Biotechnology Institute, priority 1998, dated 2003).
